Assay results: the supplement of paper PMC11208160

test: recombinant UMI read abundance after kanamycin selection (control-corrected) (log10(CPM+1)); higher = more efficient recombination; extreme values may be limits of the assay; sequences stand for … in AGTGCAGAGAAAATCGGCCAGTTTTCTCTGCCTGCAGTCCGCATGCCGTGGGACCCCTTGGGTTCTAACCTGTTGCCTAGATTTATGCAGCGGACTGCCTTTCTCCCAAAGTGATAAACCGG…AGGTTGGTTTCACT; site = the 11-nt donor
Experimental: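 Pooled E. coli donor-specificity screen for the IS621 bridge recombinase. Each library member carries a reprogrammed 11-nt donor and a full-length LE bridge RNA expressed in cis from the natural promoter, with a paired donor-binding loop (8-nt LDG + 4-nt RDG) and a target-binding loop fixed to T5. It is co-electroporated with a T5 target plasmid; recombinase is induced with 0.07 mM IPTG and recombinants are selected on kanamycin. UMIs are counted as CPM, averaged over two biological replicates and corrected by the unselected control. Molecule = full bridge RNA written as DNA, built from the T5 scaffold: LDG = donor specificity nt 1-8, RDG = reverse complement of nt 8-11.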
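Note: IS621 bridge recombinase in Escherichia coli cells against a fixed T5 target plasmid.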

Sequence	recombinant UMI read abundance (log10)
AATATAACATGGACCGGTTTTCCCGGTAATCCGTATTTGCT (site AATTTAACTAG)	0.0427
AATCATGCATGGACCGGTTTTCCCGGTAATCCGTATTTGGA (site AATAATGCTTC)	0.666
AATCATGCATGGACCGGTTTTCCCGGTAATCCGTATTTGGA (site AATCATGCTTC)	0.584
AATCATGCATGGACCGGTTTTCCCGGTAATCCGTATTTGGA (site AATGATGCTTC)	0.351
AATCATGCATGGACCGGTTTTCCCGGTAATCCGTATTTGGA (site AATTATGCTTC)	0.636
AATCCATCATGGACCGGTTTTCCCGGTAATCCGTATTTGTA (site AATCCATCTTA)	1.06
AATCTCACATGGACCGGTTTTCCCGGTAATCCGTATTTGGA (site AATCTCACTTC)	0.341
AATCTGGCATGGACCGGTTTTCCCGGTAATCCGTATTTGTA (site AATCTGGCTTA)	0.472
AATGAGACATGGACCGGTTTTCCCGGTAATCCGTATTTGGT (site AATGAGACTAC)	1.58
AATGAGACATGGACCGGTTTTCCCGGTAATCCGTATTTGGT (site ACTGAGACTAC)	0.724
AATGAGACATGGACCGGTTTTCCCGGTAATCCGTATTTGGT (site AGTGAGACTAC)	1.41
AATGAGACATGGACCGGTTTTCCCGGTAATCCGTATTTGGT (site ATTGAGACTAC)	0.678
AATGATGCATGGACCGGTTTTCCCGGTAATCCGTATTTGGA (site AATAATGCTTC)	1.08
AATGATGCATGGACCGGTTTTCCCGGTAATCCGTATTTGGA (site AATCATGCTTC)	1.01
AATGATGCATGGACCGGTTTTCCCGGTAATCCGTATTTGGA (site AATGATGCTTC)	1.06
AATGATGCATGGACCGGTTTTCCCGGTAATCCGTATTTGGA (site AATTATGCTTC)	0.561
AATGCAACATGGACCGGTTTTCCCGGTAATCCGTATTTGCT (site AATGAAACTAG)	0
AATGCAACATGGACCGGTTTTCCCGGTAATCCGTATTTGCT (site AATGCAACTAG)	0.00461
AATGCAACATGGACCGGTTTTCCCGGTAATCCGTATTTGCT (site AATGGAACTAG)	0
AATGCAACATGGACCGGTTTTCCCGGTAATCCGTATTTGCT (site AATGTAACTAG)	0
AATGCAGCATGGACCGGTTTTCCCGGTAATCCGTATTTGGG (site AATGCAGCTCC)	0.00829
AATGCGTCATGGACCGGTTTTCCCGGTAATCCGTATTTGAC (site AATGAGTCTGT)	0

Sequence	recombinant UMI read abundance (log10)
AATGCGTCATGGACCGGTTTTCCCGGTAATCCGTATTTGAC (site AATGCGTCTGT)	2.03
AATGCGTCATGGACCGGTTTTCCCGGTAATCCGTATTTGAC (site AATGGGTCTGT)	0
AATGCGTCATGGACCGGTTTTCCCGGTAATCCGTATTTGAC (site AATGTGTCTGT)	0.269
AATGGGTCATGGACCGGTTTTCCCGGTAATCCGTATTTGAC (site AATGAGTCTGT)	0.146
AATGGGTCATGGACCGGTTTTCCCGGTAATCCGTATTTGAC (site AATGCGTCTGT)	0.826
AATGGGTCATGGACCGGTTTTCCCGGTAATCCGTATTTGAC (site AATGGGTCTGT)	2.68
AATGGGTCATGGACCGGTTTTCCCGGTAATCCGTATTTGAC (site AATGTGTCTGT)	0
AATGGTGCATGGACCGGTTTTCCCGGTAATCCGTATTTGGT (site AATGGTGCTAC)	1.04
AATGTAACATGGACCGGTTTTCCCGGTAATCCGTATTTGCG (site AATGTAACTAG)	0
AATGTAACATGGACCGGTTTTCCCGGTAATCCGTATTTGCG (site AATGTAACTCG)	1.48
AATGTAACATGGACCGGTTTTCCCGGTAATCCGTATTTGCG (site AATGTAACTGG)	0
AATGTAACATGGACCGGTTTTCCCGGTAATCCGTATTTGCG (site AATGTAACTTG)	0.00267
AATGTAACATGGACCGGTTTTCCCGGTAATCCGTATTTGTT (site AATGTAACTAA)	0.321
AATGTAACATGGACCGGTTTTCCCGGTAATCCGTATTTGTT (site AATGTAACTAC)	0.00716
AATGTAACATGGACCGGTTTTCCCGGTAATCCGTATTTGTT (site AATGTAACTAG)	0.466
AATGTAACATGGACCGGTTTTCCCGGTAATCCGTATTTGTT (site AATGTAACTAT)	0.0338
AATGTACCATGGACCGGTTTTCCCGGTAATCCGTATTTGCT (site AATGTAACTAG)	0
AATGTACCATGGACCGGTTTTCCCGGTAATCCGTATTTGCT (site AATGTACCTAG)	0
AATGTACCATGGACCGGTTTTCCCGGTAATCCGTATTTGCT (site AATGTAGCTAG)	0.00499
AATGTACCATGGACCGGTTTTCCCGGTAATCCGTATTTGCT (site AATGTATCTAG)	0.926
AATGTGTCATGGACCGGTTTTCCCGGTAATCCGTATTTGAG (site AATGTGTCTAT)	1.43
AATGTGTCATGGACCGGTTTTCCCGGTAATCCGTATTTGAG (site AATGTGTCTCT)	1.82

Sequence	recombinant UMI read abundance (log10)
AATGTGTCATGGACCGGTTTTCCCGGTAATCCGTATTTGAG (site AATGTGTCTGT)	0.801
AATGTGTCATGGACCGGTTTTCCCGGTAATCCGTATTTGAG (site AATGTGTCTTT)	0.832
AATGTGTCATGGACCGGTTTTCCCGGTAATCCGTATTTGAT (site AATGTGTCTAT)	1.66
AATGTGTCATGGACCGGTTTTCCCGGTAATCCGTATTTGAT (site AATGTGTCTCT)	0.003
AATGTGTCATGGACCGGTTTTCCCGGTAATCCGTATTTGAT (site AATGTGTCTGT)	0
AATGTGTCATGGACCGGTTTTCCCGGTAATCCGTATTTGAT (site AATGTGTCTTT)	0.0089
AATTAGCCATGGACCGGTTTTCCCGGTAATCCGTATTTGAG (site AATTAGCCTCT)	0.017
AATTATCCATGGACCGGTTTTCCCGGTAATCCGTATTTGGA (site AATTATACTTC)	0.126
AATTATCCATGGACCGGTTTTCCCGGTAATCCGTATTTGGA (site AATTATCCTTC)	0
AATTATCCATGGACCGGTTTTCCCGGTAATCCGTATTTGGA (site AATTATGCTTC)	0.0173
AATTATCCATGGACCGGTTTTCCCGGTAATCCGTATTTGGA (site AATTATTCTTC)	0.322
AATTATGCATGGACCGGTTTTCCCGGTAATCCGTATTTGGA (site AAATATGCTTC)	1.34
AATTATGCATGGACCGGTTTTCCCGGTAATCCGTATTTGGA (site AACTATGCTTC)	1.02
AATTATGCATGGACCGGTTTTCCCGGTAATCCGTATTTGGA (site AAGTATGCTTC)	1.19
AATTATGCATGGACCGGTTTTCCCGGTAATCCGTATTTGGA (site AATAATGCTTC)	0.535
AATTATGCATGGACCGGTTTTCCCGGTAATCCGTATTTGGA (site AATCATGCTTC)	0.445
AATTATGCATGGACCGGTTTTCCCGGTAATCCGTATTTGGA (site AATGATGCTTC)	0.482
AATTATGCATGGACCGGTTTTCCCGGTAATCCGTATTTGGA (site AATTAAGCTTC)	0.54
AATTATGCATGGACCGGTTTTCCCGGTAATCCGTATTTGGA (site AATTACGCTTC)	0.439
AATTATGCATGGACCGGTTTTCCCGGTAATCCGTATTTGGA (site AATTAGGCTTC)	0.38
AATTATGCATGGACCGGTTTTCCCGGTAATCCGTATTTGGA (site AATTATACTTC)	0.816
